Measurements reported in ChEMBL document CHEMBL1121427, “Decomposition of pharmacological activity indices into mutually independent components using principal component analysis” (J Med Chem, 1980).

Experiments:
Type in all cases: functional
Set-up in all cases: unit not given here
[1] = system: Bacillus subtilis; test: Inhibitory activity against Bacillus subtilis
[2] = system: Enterococcus faecalis; test: The compound was evaluated for activity against strain Streptococcus faecalis
[3] = system: Staphylococcus aureus; test: The compound was evaluated for activity against strain Micrococcus aureus
[4] = system: Streptococcus pyogenes; test: The compound was evaluated for activity against strain Streptococcus hemolyticus

Structure (SMILES) | -Log C [1] | -Log C [2] | -Log C [3] | -Log C [4]
COC1/C=C/OC2(C)Oc3c(C)c(O)c4c(O)c(cc(OCC(=O)NC(C)(C)C)c4c3C2=O)NC(=O)/C(C)=C\C=C\C(C)C(O)C(C)C(O)C(C)C(OC(C)=O)C1C (stereo not given) | 5.42 | 5.83 | 6.73 | 6.43
COC1/C=C/OC2(C)Oc3c(C)c(O)c4c(O)c(cc(OCC(=O)N(C)CCC#N)c4c3C2=O)NC(=O)/C(C)=C\C=C\C(C)C(O)C(C)C(O)C(C)C(OC(C)=O)C1C (stereo not given) | 5.74 | 6.05 | 6.97 | 6.97
COC1/C=C/OC2(C)Oc3c(C)c(O)c4c(O)c(cc(OCC(=O)N5C(C)COCC5C)c4c3C2=O)NC(=O)/C(C)=C\C=C\C(C)C(O)C(C)C(O)C(C)C(OC(C)=O)C1C (stereo not given) | 6.15 | 6.98 | 7.93 | 7.76
COC1/C=C/OC2(C)Oc3c(C)c(O)c4c(O)c(cc(OCC(=O)Nc5ccccc5)c4c3C2=O)NC(=O)/C(C)=C\C=C\C(C)C(O)C(C)C(O)C(C)C(OC(C)=O)C1C (stereo not given) | 5.43 | 6.04 | 6.92 | 6.84
CCCNC(=O)COc1cc2c(O)c3c(O)c(C)c4c(c13)C(=O)C(C)(O/C=C/C(OC)C(C)C(OC(C)=O)C(C)C(O)C(C)C(O)C(C)/C=C/C=C(/C)C(=O)N2)O4 (stereo not given) | 5.41 | 5.82 | 6.5 | 6.42
COC1/C=C/OC2(C)Oc3c(C)c(O)c4c(O)c(cc(OCC(=O)N(C)C5CCCC5)c4c3C2=O)NC(=O)/C(C)=C\C=C\C(C)C(O)C(C)C(O)C(C)C(OC(C)=O)C1C (stereo not given) | 6.36 | 7.22 | 8.14 | 8.22
CCN(C)C(=O)COc1cc2c(O)c3c(O)c(C)c4c(c13)C(=O)C(C)(O/C=C/C(OC)C(C)C(OC(C)=O)C(C)C(O)C(C)C(O)C(C)/C=C/C=C(/C)C(=O)N2)O4 (stereo not given) | 6.03 | 7.06 | 7.95 | 7.95
COC1/C=C/OC2(C)Oc3c(C)c(O)c4c(O)c(cc(OCC(=O)N5CCOCC5C)c4c3C2=O)NC(=O)/C(C)=C\C=C\C(C)C(O)C(C)C(O)C(C)C(OC(C)=O)C1C (stereo not given) | 6.67 | 6.22 | 7.92 | 8.36
COC1/C=C/OC2(C)Oc3c(C)c(O)c4c(O)c(cc(OCC(=O)N(Cc5ccccc5)Cc5ccccc5)c4c3C2=O)NC(=O)/C(C)=C\C=C\C(C)C(O)C(C)C(O)C(C)C(OC(C)=O)C1C (stereo not given) | 6.89 | 7.49 | 8.49 | 7.89
CCNC(=O)COc1cc2c(O)c3c(O)c(C)c4c(c13)C(=O)C(C)(O/C=C/C(OC)C(C)C(OC(C)=O)C(C)C(O)C(C)C(O)C(C)/C=C/C=C(/C)C(=O)N2)O4 (stereo not given) | 5.4 | 6.2 | 6.99 | 7.5
CCCN(C)C(=O)COc1cc2c(O)c3c(O)c(C)c4c(c13)C(=O)C(C)(O/C=C/C(OC)C(C)C(OC(C)=O)C(C)C(O)C(C)C(O)C(C)/C=C/C=C(/C)C(=O)N2)O4 (stereo not given) | 6.65 | 7.31 | 7.91 | 8.13
COC1/C=C/OC2(C)Oc3c(C)c(O)c4c(O)c(cc(OCC(=O)N5C(C)CCC5C)c4c3C2=O)NC(=O)/C(C)=C\C=C\C(C)C(O)C(C)C(O)C(C)C(OC(C)=O)C1C (stereo not given) | 6.67 | 7.45 | 8.22 | 8.22
C=CCN(CC=C)C(=O)COc1cc2c(O)c3c(O)c(C)c4c(c13)C(=O)C(C)(O/C=C/C(OC)C(C)C(OC(C)=O)C(C)C(O)C(C)C(O)C(C)/C=C/C=C(/C)C(=O)N2)O4 (stereo not given) | 6.67 | 7.22 | 8.22 | 8.44
COC1/C=C/OC2(C)Oc3c(C)c(O)c4c(O)c(cc(OCC(=O)N(CCCl)CCCl)c4c3C2=O)NC(=O)/C(C)=C\C=C\C(C)C(O)C(C)C(O)C(C)C(OC(C)=O)C1C (stereo not given) | 6.38 | 5.77 | 7.24 | 7.47
CCCN(CC)C(=O)COc1cc2c(O)c3c(O)c(C)c4c(c13)C(=O)C(C)(O/C=C/C(OC)C(C)C(OC(C)=O)C(C)C(O)C(C)C(O)C(C)/C=C/C=C(/C)C(=O)N2)O4 (stereo not given) | 6.35 | 7.22 | 8.01 | 8.22
COC1/C=C/OC2(C)Oc3c(C)c(O)c4c(O)c(cc(OCC(=O)N(C)C(C)(C)C)c4c3C2=O)NC(=O)/C(C)=C\C=C\C(C)C(O)C(C)C(O)C(C)C(OC(C)=O)C1C (stereo not given) | 6.66 | 7.62 | 8.62 | 8.31
COC1/C=C/OC2(C)Oc3c(C)c(O)c4c(O)c(cc(OCC(=O)N5CCCC5)c4c3C2=O)NC(=O)/C(C)=C\C=C\C(C)C(O)C(C)C(O)C(C)C(OC(C)=O)C1C (stereo not given) | 5.73 | 6.34 | 7.26 | 8.21
COC1/C=C/OC2(C)Oc3c(C)c(O)c4c(O)c(cc(OCC(=O)N5CCCCC5)c4c3C2=O)NC(=O)/C(C)=C\C=C\C(C)C(O)C(C)C(O)C(C)C(OC(C)=O)C1C (stereo not given) | 6.04 | 6.92 | 8.01 | 8.22

Structure (SMILES) | -Log C [1] | -Log C [2] | -Log C [3] | -Log C [4]
COC1/C=C/OC2(C)Oc3c(C)c(O)c4c(O)c(cc(OCC(=O)Nc5ccc(Br)cc5)c4c3C2=O)NC(=O)/C(C)=C\C=C\C(C)C(O)C(C)C(O)C(C)C(OC(C)=O)C1C (stereo not given) | 5.78 | 6.56 | 6.48 | 6.66
CCCN(CCC)C(=O)COc1cc2c(O)c3c(O)c(C)c4c(c13)C(=O)C(C)(O/C=C/C(OC)C(C)C(OC(C)=O)C(C)C(O)C(C)C(O)C(C)/C=C/C=C(/C)C(=O)N2)O4 (stereo not given) | 6.53 | 7.15 | 8.15 | 8.15
COC1/C=C/OC2(C)Oc3c(C)c(O)c4c(O)c(cc(OCC(=O)N5CCC(C)CC5)c4c3C2=O)NC(=O)/C(C)=C\C=C\C(C)C(O)C(C)C(O)C(C)C(OC(C)=O)C1C (stereo not given) | 6.36 | 7.27 | 8.22 | 7.92
COC1/C=C/OC2(C)Oc3c(C)c(O)c4c(O)c(cc(OCC(=O)N(C)C)c4c3C2=O)NC(=O)/C(C)=C\C=C\C(C)C(O)C(C)C(O)C(C)C(OC(C)=O)C1C (stereo not given) | 5.72 | 6.02 | 7.12 | 7.89
CCCCN(C)C(=O)COc1cc2c(O)c3c(O)c(C)c4c(c13)C(=O)C(C)(O/C=C/C(OC)C(C)C(OC(C)=O)C(C)C(O)C(C)C(O)C(C)/C=C/C=C(/C)C(=O)N2)O4 (stereo not given) | 6.35 | 7.22 | 8.44 | 8.62
COC1/C=C/OC2(C)Oc3c(C)c(O)c4c(O)c(cc(OCC(=O)N(c5ccccc5)c5ccccc5)c4c3C2=O)NC(=O)/C(C)=C\C=C\C(C)C(O)C(C)C(O)C(C)C(OC(C)=O)C1C (stereo not given) | 7.05 | 7.65 | 8.65 | 7.55
COC1/C=C/OC2(C)Oc3c(C)c(O)c4c(O)c(cc(OCC(=O)NC(C)C)c4c3C2=O)NC(=O)/C(C)=C\C=C\C(C)C(O)C(C)C(O)C(C)C(OC(C)=O)C1C (stereo not given) | 5.41 | 5.9 | 6.7 | 7.12
COC1/C=C/OC2(C)Oc3c(C)c(O)c4c(O)c(cc(OCC(=O)N(C)C5CCCCC5)c4c3C2=O)NC(=O)/C(C)=C\C=C\C(C)C(O)C(C)C(O)C(C)C(OC(C)=O)C1C (stereo not given) | 6.68 | 7.53 | 8.15 | 7.98
COC1/C=C/OC2(C)Oc3c(C)c(O)c4c(O)c(cc(OCC(=O)N(C)CCO)c4c3C2=O)NC(=O)/C(C)=C\C=C\C(C)C(O)C(C)C(O)C(C)C(OC(C)=O)C1C (stereo not given) | 5.23 | 5.85 | 6.93 | 7.15
CNC(=O)COc1cc2c(O)c3c(O)c(C)c4c(c13)C(=O)C(C)(O/C=C/C(OC)C(C)C(OC(C)=O)C(C)C(O)C(C)C(O)C(C)/C=C/C=C(/C)C(=O)N2)O4 (stereo not given) | 7.11 | 5.89 | 6.68 | 5.09
COC1/C=C/OC2(C)Oc3c(C)c(O)c4c(O)c(cc(OCC(=O)N5CCOCC5)c4c3C2=O)NC(=O)/C(C)=C\C=C\C(C)C(O)C(C)C(O)C(C)C(OC(C)=O)C1C (stereo not given) | 5.74 | 5.84 | 6.44 | 7.26
COC1/C=C/OC2(C)Oc3c(C)c(O)c4c(O)c(cc(OCC(N)=O)c4c3C2=O)NC(=O)/C(C)=C\C=C\C(C)C(O)C(C)C(O)C(C)C(OC(C)=O)C1C (stereo not given) | 4.78 | 4.91 | 5.7 | 6.62
COC1/C=C/OC2(C)Oc3c(C)c(O)c4c(O)c(cc(OCC(=O)N(CC(C)C)CC(C)C)c4c3C2=O)NC(=O)/C(C)=C\C=C\C(C)C(O)C(C)C(O)C(C)C(OC(C)=O)C1C (stereo not given) | 7.28 | 7.86 | 8.86 | 8.16
CCCCN(CC)C(=O)COc1cc2c(O)c3c(O)c(C)c4c(c13)C(=O)C(C)(O/C=C/C(OC)C(C)C(OC(C)=O)C(C)C(O)C(C)C(O)C(C)/C=C/C=C(/C)C(=O)N2)O4 (stereo not given) | 6.27 | 7.62 | 8.62 | 8.15
COC1/C=C/OC2(C)Oc3c(C)c(O)c4c(O)c(cc(OCC(=O)N(C)Cc5ccccc5)c4c3C2=O)NC(=O)/C(C)=C\C=C\C(C)C(O)C(C)C(O)C(C)C(OC(C)=O)C1C (stereo not given) | 6.37 | 7.09 | 8.24 | 8.16
COC1/C=C/OC2(C)Oc3c(C)c(O)c4c(O)c(cc(OCC(=O)Nc5ccc(Cl)cc5)c4c3C2=O)NC(=O)/C(C)=C\C=C\C(C)C(O)C(C)C(O)C(C)C(OC(C)=O)C1C (stereo not given) | 5.64 | 6.39 | 6.54 | 6.86
CCN(C(=O)COc1cc2c(O)c3c(O)c(C)c4c(c13)C(=O)C(C)(O/C=C/C(OC)C(C)C(OC(C)=O)C(C)C(O)C(C)C(O)C(C)/C=C/C=C(/C)C(=O)N2)O4)c1ccccc1 (stereo not given) | 6.37 | 7.33 | 8.46 | 8.16
